The subject of experiment [1] is Staphylococcus aureus. The experiment can be described thus: Antimicrobial activity against Staphylococcus aureus MTCC 96 after 24 hrs by well diffusion method. The experiment is classed as functional.
Experiment [2] concerns Staphylococcus aureus. As to the kind of experiment: Antimicrobial activity against Staphylococcus aureus MLS-16 MTCC 2940 after 24 hrs by well diffusion method. The experiment is classed as functional. In general terms: A growth-free zone around the sample is the usual read-out of agar diffusion tests.
Experiment [3] deals with Candida albicans. As to the kind of experiment: microbe, parasite or virus in culture. The settings on record: MTCC 3017, 24 h.
Description: (§1) Antimicrobial activity against Candida albicans MTCC 3017 after 24 hrs by well diffusion method
The subject of experiment [4] is Bacillus subtilis. The experiment can be described thus: Antimicrobial activity against Bacillus subtilis MTCC 121 after 24 hrs by well diffusion method. The experiment is classed as functional.
Experiment [5] deals with Raoultella planticola. As to the kind of experiment: Antimicrobial activity against Klebsiella planticola MTCC 530 after 24 hrs by well diffusion method. The experiment is classed as functional.
The test system of experiment [6] is Micrococcus luteus. As to the kind of experiment: Antimicrobial activity against Micrococcus luteus MTCC 2470 after 24 hrs by well diffusion method. The experiment is classed as functional.
Experiment [7] concerns Escherichia coli. As to the kind of experiment: Antimicrobial activity against Escherichia coli MTCC 739 after 24 hrs by well diffusion method. The experiment is classed as functional.
Experiment [8] concerns Pseudomonas aeruginosa. As to the kind of experiment: Antimicrobial activity against Pseudomonas aeruginosa MTCC 2453 after 24 hrs by well diffusion method. The experiment is classed as functional.
The subject of experiment [9] is Bacillus subtilis. The experiment can be described thus: Bactericidal activity against Bacillus subtilis MTCC 121 after 24 hrs by agar plating method. The experiment is classed as functional. The conditions noted are these: MTCC 121, 24 h.
Experiment [10] has as its system Staphylococcus aureus. As to the kind of experiment: Antimicrobial activity against Staphylococcus aureus MTCC 96 assessed as inhibition of biofilm formation after 24 hrs by crystal violet staining-based assay. The experiment is classed as functional, organism-based. The settings on record: MTCC 96, 24 h.
Experiment [11] concerns Staphylococcus aureus. As to the kind of experiment: Bactericidal activity against Staphylococcus aureus MLS-16 MTCC 2940 after 24 hrs by agar plating method. The experiment is classed as functional. The conditions noted are these: MLS-16 MTCC 2940, 24 h.
Experiment [12] deals with Pseudomonas aeruginosa. The experiment can be described thus: Bactericidal activity against Pseudomonas aeruginosa MTCC 2453 after 24 hrs by agar plating method. The settings on record: MTCC 2453, 24 h. The experiment is classed as functional.
Experiment [13] deals with Staphylococcus aureus. As to the kind of experiment: Antimicrobial activity against Staphylococcus aureus MLS-16 MTCC 2940 assessed as inhibition of biofilm formation after 24 hrs by crystal violet staining-based assay. The conditions noted are these: MLS-16 MTCC 2940, 24 h. The experiment is classed as functional, organism-based.
Experiment [14] has as its system Raoultella planticola. As to the kind of experiment: Bactericidal activity against Klebsiella planticola MTCC 530 after 24 hrs by agar plating method. The experiment is classed as functional. The settings on record: MTCC 530, 24 h.
Experiment [15] has as its system Candida albicans. The settings on record: MTCC 3017.
Description: as §1
The subject of experiment [16] is Staphylococcus aureus. The experiment can be described thus: Bactericidal activity against Staphylococcus aureus MTCC 96 after 24 hrs by agar plating method. The experiment is classed as functional. The settings on record: MTCC 96, 24 h.
Experiment [17] concerns MCF7. As to the kind of experiment: Cytotoxicity against human MCF7 cells after 24 hrs by MTT assay. The settings on record: MCF7, 24 h. The experiment is classed as functional, cell-based. (Tetrazolium dyes change colour on reduction, which living cells bring about.)
Experiment [18] concerns Micrococcus luteus. As to the kind of experiment: Bactericidal activity against Micrococcus luteus MTCC 2470 after 24 hrs by agar plating method. The experiment is classed as functional. The conditions noted are these: MTCC 2470, 24 h.
The subject of experiment [19] is A549. As to the kind of experiment: Cytotoxicity against human A549 cells after 24 hrs by MTT assay. The settings on record: A549, 24 h. The experiment is classed as functional, cell-based.
Experiment [20] relates to Raoultella planticola. As to the kind of experiment: Antimicrobial activity against Klebsiella planticola MTCC 530 assessed as inhibition of biofilm formation after 24 hrs by crystal violet staining-based assay. The experiment is classed as functional, organism-based. The conditions noted are these: MTCC 530, 24 h.
The test system of experiment [21] is Micrococcus luteus. As to the kind of experiment: Antimicrobial activity against Micrococcus luteus MTCC 2470 assessed as inhibition of biofilm formation after 24 hrs by crystal violet staining-based assay. The experiment is classed as functional, organism-based. The conditions noted are these: MTCC 2470, 24 h.
Experiment [22] concerns HeLa. The experiment can be described thus: Cytotoxicity against human HeLa cells after 24 hrs by MTT assay. The experiment is classed as functional, cell-based.
The subject of experiment [23] is Escherichia coli. As to the kind of experiment: Bactericidal activity against Escherichia coli MTCC 739 after 24 hrs by agar plating method. The experiment is classed as functional. The settings on record: MTCC 739, 24 h.
For experiment [24], the system named is Pseudomonas aeruginosa. As to the kind of experiment: Antimicrobial activity against Pseudomonas aeruginosa MTCC 2453 assessed as inhibition of biofilm formation after 24 hrs by crystal violet staining-based assay. The experiment is classed as functional, organism-based. The conditions noted are these: MTCC 2453, 24 h.
Experiment [25] relates to DU-145. As to the kind of experiment: Cytotoxicity against human DU145 cells after 24 hrs by MTT assay. The experiment is classed as functional, cell-based. The settings on record: DU-145, 24 h.

In brackets after ≈: the same amount, converted by molar mass. Activity calls are given as the source filed them. The calls are words filed in the database; no cut-off is given here. A value given as a limit tells only on which side of the number the result lay.

What is called MBC is the lowest tested concentration that kills the bacteria rather than only halting them. Low values mean more potent killing, high ones less potent killing. A word on the IC50: it is the concentration needed to halve the response being measured.

In the case of `Clc1ccc(COC(Cn2ccnc2)c2ccc(Cl)cc2Cl)c(Cl)c1` (configuration not stated) [MICONAZOLE], the MIC result in experiment [1], in experiment [2], in experiment [4], in experiment [5], in [6] and in experiment [7] was “inactive” each time. The MIC result in [8] was “inactive”. Besides, the MIC in [3] came out at 7.8 µg/mL (≈ 18.7 µM).

Regarding `Nc1nc(OCc2cn(-c3n[nH]c4nc(C(F)(F)F)ccc34)nn2)cc(C(F)(F)F)n1`, the MIC in [1] (MTCC 96, 24 h) is 15.6 µg/mL (≈ 35 µM); in experiment [2] (MLS-16 MTCC 2940, 24 h), 15.6 µg/mL (≈ 35 µM); in experiment [4] (MTCC 121, 24 h) it was 15.6 µg/mL (≈ 35 µM); in [5] (MTCC 530, 24 h), 15.6 µg/mL (≈ 35 µM); in experiment [6] (MTCC 2470, 24 h) it was 7.8 µg/mL (≈ 17.5 µM); in [7] (MTCC 739, 24 h), 7.8 µg/mL (≈ 17.5 µM). Moreover, the MIC in experiment [8] (MTCC 2453, 24 h) came to 7.8 µg/mL (≈ 17.5 µM). The MBC was found to be 31.2 µg/mL (≈ 70.1 µM) in experiment [9]; 31.2 µg/mL (≈ 70.1 µM) in [11]; 15.6 µg/mL (≈ 35 µM) in experiment [12]; 31.2 µg/mL (≈ 70.1 µM) in experiment [14]; 31.2 µg/mL (≈ 70.1 µM) in [16]; 15.6 µg/mL (≈ 35 µM) in experiment [18]. Also, in experiment [23], the MBC came to 7.8 µg/mL (≈ 17.5 µM). Also, the IC50 in experiment [10] was 7.8 µg/mL (≈ 17.5 µM); in experiment [13], 7.8 µg/mL (≈ 17.5 µM); in [17], above 100 µM; in experiment [19], 22.8 µM; in experiment [20], 7.8 µg/mL (≈ 17.5 µM); in [21], 7.8 µg/mL (≈ 17.5 µM). In addition, the concentration for half-maximal inhibition (IC50) was above 100 µM in [22], 3.9 µg/mL (≈ 8.76 µM) in experiment [24] and 28.9 µM in experiment [25]. In [15], the MIC entry is “inactive”.

The values above are taken from ChEMBL document CHEMBL3286384, “Synthesis, cytotoxicity, antimicrobial and anti-biofilm activities of novel pyrazolo[3,4-b]pyridine and pyrimidine functionalized 1,2,3-triazole derivatives” (Bioorg Med Chem Lett, 2014).
